Experimental data: BigSolDB 2.1

O=C(O)c1c(O)cccc1O
solubility (mole fraction)
Conditions | 278.15 K | 283.15 K | 288.15 K | 293.15 K | 298.15 K | 303.15 K | 308.15 K | 313.15 K | 318.15 K
in ethanol | 0.221 | 0.234 | 0.245 | 0.258 | 0.273 | 0.286 | 0.294 | 0.306 | 0.318
in isopropanol | 0.225 | 0.24 | 0.254 | 0.268 | 0.28 | 0.292 | 0.303 | 0.315 | 0.323
in methanol | 0.2 | 0.214 | 0.227 | 0.247 | 0.261 | 0.276 | 0.284 | 0.3 | 0.314
in n-butanol | 0.189 | 0.202 | 0.216 | 0.23 | 0.245 | 0.26 | 0.275 | 0.29 | 0.306
